Reference: patent US11548915B2, “Composition for overcoming resistance to EGFR-targeting agent” (Pinetree Therapeutics, Inc., priority 2016, dated 2023)

Experiments:
Test in all cases: WST-1 cell viability assay
HCC44 = conditions: HCC44, NRP1-expressing; 0, 1, 2, and 4 μM, 48 hours
H1299 = conditions: H1299, NRP1-expressing; 0, 1, 2, and 4 μM, 48 hours
A549 = conditions: A549, NRP1-expressing; 0, 1, 2, and 4 μM, 48 hours
Calu-1 = conditions: Calu-1, NRP1-expressing; 0, 1, 2, and 4 μM, 48 hours
H441 = conditions: H441, NRP1-expressing; 0, 1, 2, and 4 μM, 48 hours
H460 = conditions: H460, expressing no NRP1; 0, 1, 2, and 4 μM, 48 hours
SK-LU-1 = conditions: SK-LU-1, NRP1-expressing; 0, 1, 2, and 4 μM, 48 hours
Calu-3 = conditions: Calu-3, NRP1-expressing; 0, 1, 2, and 4 μM, 48 hours

| Substance | cell growth inhibitory activity (WST-1) (HCC44) | cell growth inhibitory activity (WST-1) (H1299) | cell growth inhibitory activity (WST-1) (A549) | cell growth inhibitory activity (WST-1) (Calu-1) | cell growth inhibitory activity (WST-1) (H441) | cell growth inhibitory activity (WST-1) (H460) | cell growth inhibitory activity (WST-1) (SK-LU-1) | cell growth inhibitory activity (WST-1) (Calu-3) |
| --- | --- | --- | --- | --- | --- | --- | --- | --- |
| Pnm-TPP11: TPP11 peptide fused to C-terminus of Pnm heavy chain by (G4S)3 linker; heavy chain SEQ ID NO: 10, light chain SEQ ID NO: 14 | showed the same inhibitory activity against cell growth | showed cell growth inhibitory activity | showed the same inhibitory activity against cell growth | showed the same inhibitory activity against cell growth | showed cell growth inhibitory activity | showed no effect | showed cell growth inhibitory activity | showed the same inhibitory activity against cell growth |
| Panitumumab [Pnm, reference compound] | showed the same inhibitory activity against cell growth | only Pnm-TPP11 showed cell growth inhibitory activity, unlike Pnm | showed the same inhibitory activity against cell growth | showed the same inhibitory activity against cell growth | only Pnm-TPP11 showed cell growth inhibitory activity, unlike Pnm |  | only Pnm-TPP11 showed cell growth inhibitory activity, unlike Pnm | showed the same inhibitory activity against cell growth |
